Laboratory results as given in ChEMBL document CHEMBL4261621, “Synthesis of enamino-2-oxindoles via conjugate addition between α-azido ketones and 3-alkenyl oxindoles: Cytotoxicity evaluation and apoptosis inducing studies” (Bioorg Med Chem Lett, 2018).

Experiments:
HCT-15 [1] = experiment: Cytotoxicity against human HCT15 cells at 30 uM after 48 hrs by MTT assay relative to control; type: functional
HCT-116 [2] = experiment: Cytotoxicity against human HCT116 cells at 30 uM after 48 hrs by MTT assay relative to control; type: functional
NCI-H460 [3] = experiment: Cytotoxicity against human NCI-H460 cells at 30 uM after 48 hrs by MTT assay relative to control; type: functional
A549 [4] = experiment: Cytotoxicity against human A549 cells at 30 uM after 48 hrs by MTT assay relative to control; type: functional
MDA-MB-231 [5] = experiment: Cytotoxicity against human MDA-MB-231 cells at 30 uM after 48 hrs by MTT assay relative to control; type: functional
HeLa [6] = experiment: Cytotoxicity against human HeLa cells at 30 uM after 48 hrs by MTT assay relative to control; type: functional
HCT-116 [7] = experiment: Cytotoxicity against human HCT116 cells after 72 hrs by MTT assay; type: functional, cell-based; details: HCT-116, 72 h
HCT-15 [8] = experiment: Cytotoxicity against human HCT15 cells after 72 hrs by MTT assay; type: functional, cell-based; details: HCT-15, 72 h
NCI-H460 [9] = experiment: Cytotoxicity against human NCI-H460 cells after 72 hrs by MTT assay; type: functional, cell-based; details: NCI-H460, 72 h
A549 [10] = experiment: Cytotoxicity against human A549 cells after 72 hrs by MTT assay; type: functional, cell-based; details: A549, 72 h
MDA-MB-231 [11] = experiment: Cytotoxicity against human MDA-MB-231 cells after 72 hrs by MTT assay; type: functional, cell-based; details: MDA-MB-231, 72 h
HeLa [12] = experiment: Cytotoxicity against human HeLa cells after 72 hrs by MTT assay; type: functional, cell-based

SMILES	Activity (HCT-15 [1]) [%]	Activity (HCT-116 [2]) [%]	Activity (NCI-H460 [3]) [%]	Activity (A549 [4]) [%]	Activity (MDA-MB-231 [5]) [%]	Activity (HeLa [6]) [%]	IC50 (HCT-116 [7]) [µM]	IC50 (HCT-15 [8]) [µM]	IC50 (NCI-H460 [9]) [µM]	IC50 (A549 [10]) [µM]	IC50 (MDA-MB-231 [11]) [µM]	IC50 (HeLa [12]) [µM]
CCOC(=O)/C(=C(\N)C(=O)c1ccccc1)C1C(=O)N(Cc2ccc(Br)cc2)c2ccccc21 (stereo unspecified)	>50	>50	>50	>50	>50	>50	3.26	3.17	3.9	3.23	7.13	7.28
COC(=O)/C(=C(\N)C(=O)c1ccccc1)C1C(=O)Nc2ccc(Br)cc21 (stereo unspecified)	>50	>50	>50	>50	>50	>50	25.9	28.5	27.6	13	6.85	12.2
CCOC(=O)/C(=C(\N)C(=O)c1ccccc1)C1C(=O)N(Cc2ccccc2)c2ccc(Br)cc21 (stereo unspecified)	>50	>50	>50	>50	>50	>50	28.7	26.1	18.5	27.7	28.2	25.6
O=c1[nH]cc(F)c(=O)[nH]1 [FLUOROURACIL]							11.6	11.9	11.8	4.3	21.1	10.8
CCOC(=O)/C(=C(\N)C(=O)c1ccc(OC)cc1)C1C(=O)N(Cc2ccccc2)c2ccc(Cl)cc21 (stereo unspecified)	>50	>50	>50	>50	>50	>50	3.82	3.15	3.32	3.25	6.96	3.72
COC(=O)/C(=C(\N)C(=O)c1ccccc1)C1C(=O)N(Cc2ccccc2)c2ccc(C)cc21 (stereo unspecified)	>50	>50	>50	>50	>50	>50	3.31	2.67	1.51	6.6	13.9	6.28
